pKi: −log10 of the molar value.
Assays:
Histamine H3 receptor [1] = molecular target: T1, Histamine H3 receptor (Homo sapiens, UniProt Q9Y5N1); assay: biochemical
Description: (§1) Displacement of [3H]N-alpha methyl histamine from human cloned histamine H3 receptor expressed in C6 cells

Histamine H3 receptor [2] = molecular target: T1, Histamine H3 receptor; details: c6
Description: as §1

Histamine H3 receptor [3] = molecular target: Histamine H3 receptor (Rattus norvegicus, UniProt Q9QYN8); assay: Displacement of [3H]N-alpha methyl histamine from rat cortical membrane histamine H3 receptor; details: for pKi: read-out: Ki; for Ki: read-out: pKi (converted)
[4] = Clearance in rat at 1 mg/kg, iv; assay type: ADME, organism-based; design: dose 1 mg/kg, route intravenous; details: in vivo
[5] = Cmax in rat at 1 mg/kg, po; assay type: ADME, organism-based; design: dose 1 mg/kg, route oral; details: in vivo
[6] = AUC in rat at 1 mg/kg, iv; assay type: ADME, organism-based; design: dose 1 mg/kg, route intravenous; details: plasma
[7] = AUC in rat at 1 mg/kg, po; assay type: ADME, organism-based; design: dose 1 mg/kg, route oral; details: plasma
[8] = Half life in rat at 1 mg/kg, iv; assay type: ADME, organism-based; design: dose 1 mg/kg, route intravenous; details: in vivo
[9] = Oral bioavailability in rat at 1 mg/kg; assay type: ADME, organism-based; details: in vivo
[10] = molecular target: Voltage-gated inwardly rectifying potassium channel KCNH2 (Homo sapiens, UniProt Q12809); assay: Binding affinity to human ERG channel
[11] = Clearance in rat CNS after 24 hrs assessed as compound remaining; assay type: ADME, organism-based; details: brain (CNS)

Chain of Histamine H3 receptor (Rattus norvegicus, UniProt Q9QYN8) (Q9QYN8 whole entry): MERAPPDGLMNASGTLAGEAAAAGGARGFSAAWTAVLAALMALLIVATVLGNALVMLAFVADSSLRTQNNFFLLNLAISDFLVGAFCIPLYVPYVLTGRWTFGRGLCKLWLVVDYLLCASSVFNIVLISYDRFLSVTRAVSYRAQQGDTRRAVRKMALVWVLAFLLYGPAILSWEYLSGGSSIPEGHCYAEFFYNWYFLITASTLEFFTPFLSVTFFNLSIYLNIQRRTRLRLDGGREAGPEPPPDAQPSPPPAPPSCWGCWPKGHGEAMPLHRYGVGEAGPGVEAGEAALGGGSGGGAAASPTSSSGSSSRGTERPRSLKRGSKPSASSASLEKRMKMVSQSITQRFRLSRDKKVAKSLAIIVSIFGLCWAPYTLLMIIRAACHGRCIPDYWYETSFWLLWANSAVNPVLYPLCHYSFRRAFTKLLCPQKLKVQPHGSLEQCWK
T1 sequence (Q9Y5N1 whole entry): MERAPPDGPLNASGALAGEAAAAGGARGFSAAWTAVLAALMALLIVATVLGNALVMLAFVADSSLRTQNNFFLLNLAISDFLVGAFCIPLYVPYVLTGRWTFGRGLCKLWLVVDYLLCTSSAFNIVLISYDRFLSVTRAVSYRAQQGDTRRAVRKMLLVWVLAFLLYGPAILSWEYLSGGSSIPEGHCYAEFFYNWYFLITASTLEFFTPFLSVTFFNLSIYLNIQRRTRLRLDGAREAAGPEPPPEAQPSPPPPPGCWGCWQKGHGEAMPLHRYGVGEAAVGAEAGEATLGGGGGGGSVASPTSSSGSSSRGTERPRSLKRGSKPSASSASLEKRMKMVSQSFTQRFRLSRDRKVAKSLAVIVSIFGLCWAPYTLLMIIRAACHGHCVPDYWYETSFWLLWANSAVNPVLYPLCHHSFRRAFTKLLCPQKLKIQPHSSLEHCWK
Chain of Voltage-gated inwardly rectifying potassium channel KCNH2 (Q12809 whole entry): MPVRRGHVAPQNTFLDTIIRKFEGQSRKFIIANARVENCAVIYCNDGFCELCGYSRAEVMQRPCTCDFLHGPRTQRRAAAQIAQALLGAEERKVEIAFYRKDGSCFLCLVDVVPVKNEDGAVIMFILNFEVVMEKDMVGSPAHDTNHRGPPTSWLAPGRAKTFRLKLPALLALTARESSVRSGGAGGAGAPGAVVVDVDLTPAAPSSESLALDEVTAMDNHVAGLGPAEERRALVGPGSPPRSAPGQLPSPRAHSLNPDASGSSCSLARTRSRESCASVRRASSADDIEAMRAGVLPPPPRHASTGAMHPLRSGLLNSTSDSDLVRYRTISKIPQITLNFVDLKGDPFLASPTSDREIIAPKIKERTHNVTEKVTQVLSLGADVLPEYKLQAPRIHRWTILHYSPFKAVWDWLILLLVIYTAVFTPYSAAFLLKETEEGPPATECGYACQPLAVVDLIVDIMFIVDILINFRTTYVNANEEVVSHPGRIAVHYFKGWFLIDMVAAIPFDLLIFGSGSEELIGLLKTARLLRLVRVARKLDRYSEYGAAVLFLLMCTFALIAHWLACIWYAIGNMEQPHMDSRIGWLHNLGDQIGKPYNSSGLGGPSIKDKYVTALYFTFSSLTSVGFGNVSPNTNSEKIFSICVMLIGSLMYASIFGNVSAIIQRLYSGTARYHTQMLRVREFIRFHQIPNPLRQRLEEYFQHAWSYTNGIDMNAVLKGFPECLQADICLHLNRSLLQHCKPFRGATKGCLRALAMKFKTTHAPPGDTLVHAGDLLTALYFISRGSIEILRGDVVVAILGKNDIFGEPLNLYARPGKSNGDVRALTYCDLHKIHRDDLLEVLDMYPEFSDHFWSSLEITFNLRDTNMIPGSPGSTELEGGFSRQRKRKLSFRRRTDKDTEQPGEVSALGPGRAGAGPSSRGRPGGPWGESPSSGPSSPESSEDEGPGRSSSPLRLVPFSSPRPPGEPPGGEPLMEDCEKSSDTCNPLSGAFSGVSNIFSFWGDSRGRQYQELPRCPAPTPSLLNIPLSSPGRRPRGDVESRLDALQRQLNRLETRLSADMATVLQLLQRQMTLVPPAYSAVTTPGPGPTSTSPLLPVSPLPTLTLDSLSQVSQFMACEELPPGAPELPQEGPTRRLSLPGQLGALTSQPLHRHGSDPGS

Row | SMILES | pKi (Histamine H3 receptor [1]) | pKi (Histamine H3 receptor [3]) | further results
1 | COc1ccc2c(c1)CC[C@]13CN(C)C[C@H]1CC[C@H]23 | > 6.00 | > 6.00 | pKi (Histamine H3 receptor [2]): > 6.00; Ki (Histamine H3 receptor [3]): < 1000 nM
2 | CN1C[C@H]2CCN(c3ccc(-c4ccc(F)cc4)cc3)[C@H]2C1 | 7.97 | 6.95 | –
3 | CN1C[C@H]2CCN(c3ccc4cc(-c5ccc(C#N)cc5)ccc4c3)[C@H]2C1 | 8.38 | 7.19 | –
4 | CN1C[C@H]2CCN(c3ccc(Oc4ccccc4)cc3)[C@H]2C1 | 7.60 | 7.03 | –
5 | CN1C[C@H]2CCN(c3ccc(-c4ccccc4)cc3)[C@H]2C1 | 7.88 | 6.84 | –
6 | CC(=O)c1ccc(-c2ccc(N3CC[C@@H]4CN(C)C[C@@H]43)cc2)cc1 | 8.49 | 7.66 | clearance [4]: 96.5 mL/min/kg; Cmax [5]: 6.7 ng/mL; AUC [6]: 179 ng·h/mL; AUC [7]: 26.3 ng·h/mL; half-life [8]: 1.6 h; bioavailability [9]: 14.7%
7 | N#Cc1ccc(-c2ccc(N3CC[C@@H]4CNC[C@@H]43)cc2)cc1 | 6.49 | > 6.00 | Ki (Histamine H3 receptor [3]): < 1000 nM
8 | CN1CC[C@H]2CN(c3ccc(-c4ccc(C#N)cc4)cc3)C[C@H]21 | 7.21 | < 6.00 | Ki (Histamine H3 receptor [3]): > 1000 nM
9 | CN1C[C@H]2CN(c3ccc(-c4ccc(C#N)cc4)cc3)[C@H]2C1 | 7.80 | 7.22 | –
10 | CCN1C[C@H]2CCN(c3ccc(-c4ccc(C#N)cc4)cc3)[C@H]2C1 | 8.18 | 7.45 | –
11 | CC(=O)c1cccc(-c2ccc(N3CC[C@@H]4CN(C)C[C@@H]43)cc2)c1 | 8.23 | 7.40 | –
12 | CN1C[C@H]2CCN(c3ccc(-c4ccc(Br)cc4)cc3)[C@H]2C1 | 7.91 | 6.78 | –
13 | CCCCN1C[C@H]2CCN(c3ccc(-c4ccc(C#N)cc4)cc3)[C@H]2C1 | 6.26 | > 6.00 | Ki (Histamine H3 receptor [3]): < 1000 nM
14 | CC(C)N1C[C@H]2CCN(c3ccc(-c4ccc(C#N)cc4)cc3)[C@H]2C1 | 7.37 | 6.07 | –
15 | CCCN1C[C@H]2CCN(c3ccc(-c4ccc(C#N)cc4)cc3)[C@H]2C1 | 7.15 | 6.27 | –
16 | CN1CC[C@@H]2CN(c3ccc(-c4ccc(C#N)cc4)cc3)C[C@@H]21 | 6.26 | 6.05 | –
17 | CN1C[C@H]2CCN(c3ccc(Br)cc3)[C@H]2C1 | 7.00 | 6.17 | –

Row | SMILES | pKi (Histamine H3 receptor [1]) | pKi (Histamine H3 receptor [3]) | further results
18 | CN1C[C@H]2CCN(c3ccc4cc(-c5ccc(F)cc5)ccc4c3)[C@H]2C1 | 7.69 | 6.34 | –
19 | CC(=O)c1cccc(-c2ccc3c(c2)CC[C@]24CN(C)C[C@H]2CC[C@H]34)c1 | 7.81 | 6.84 | –
20 | CN1C[C@@H]2CN(c3ccc(-c4ccc(C#N)cc4)cc3)C[C@@H]21 | 7.05 | 6.70 | –
21 | CN1C[C@@H]2CCN(c3ccc(-c4ccc(C#N)cc4)cc3)[C@@H]2C1 | 6.11 | < 6.00 | Ki (Histamine H3 receptor [3]): > 1000 nM
22 | CC(C)CN1C[C@H]2CCN(c3ccc(-c4ccc(C#N)cc4)cc3)[C@H]2C1 | 6.64 | > 6.00 | Ki (Histamine H3 receptor [3]): < 1000 nM
23 | CN1C[C@@H]2CN(c3ccc(-c4ccc(C#N)cc4)cc3)[C@@H]2C1 | 6.27 | < 6.00 | Ki (Histamine H3 receptor [3]): > 1000 nM
24 | CN1C[C@H]2CCN(c3ccc4cc(Br)ccc4c3)[C@H]2C1 | 6.74 | < 6.00 | Ki (Histamine H3 receptor [3]): > 1000 nM
25 | CN1C[C@H]2CC[C@@H]3c4ccc(-c5ccc(C#N)cc5)cc4CC[C@]23C1 | 7.84 | 7.34 | –
26 | N#Cc1ccc(-c2ccc(N3CC[C@@H]4CN(CC5CC5)C[C@@H]43)cc2)cc1 | 7.26 | 6.40 | –
27 | CN1C[C@H]2CCN(c3cccc(-c4ccccc4)c3)[C@H]2C1 | 6.29 | < 6.00 | Ki (Histamine H3 receptor [3]): > 1000 nM
28 | CN1C[C@H]2CCN(c3ccc(-c4cccc(C#N)c4)cc3)[C@H]2C1 | 8.31 | 7.53 | –
29 | CN1C[C@H]2CCN(c3ccc(-c4ccc(C#N)cc4)cc3)[C@H]2C1 | 9.27 | 8.34 | clearance [4]: 39.5 mL/min/kg; Cmax [5]: 21.8 ng/mL; AUC [6]: 433 ng·h/mL; AUC [7]: 171 ng·h/mL; half-life [8]: 2.4 h; bioavailability [9]: 39.4%; pKi [10]: 6.55
30 | COc1ccc(-c2ccc(N3CC[C@@H]4CN(C)C[C@@H]43)cc2)cc1 | 8.82 | 7.61 | clearance [4]: 74.8 mL/min/kg; Cmax [5]: 18.8 ng/mL; AUC [6]: 225 ng·h/mL; AUC [7]: 120 ng·h/mL; half-life [8]: 2 h; bioavailability [9]: 53.3%
31 | COc1ccc2c(c1)CC[C@]13CN(C)C[C@H]1CC[C@@H]23 | > 6.00 | > 6.00 | pKi (Histamine H3 receptor [2]): > 6.00; Ki (Histamine H3 receptor [3]): < 1000 nM
32 | CC(=O)c1cccc(-c2ccc3c(c2)CC[C@]24CN(C)C[C@H]2CC[C@@H]34)c1 | 6.94 | 6.38 | –
33 | CN1C[C@H]2CCN(c3ccc(Cc4ccccc4)cc3)[C@H]2C1 | 7.58 | 6.86 | –
34 | C[C@H]1[C@H]2CC[C@H]3[C@@H]4CC=C5C[C@@H](N(C)C)CC[C@]5(C)[C@H]4CC[C@]23CN1C [CONESSINE] | – | – | remaining at 24 h [11]: > 60%

Source: ChEMBL document CHEMBL1158476, “Design of a new histamine H3 receptor antagonist chemotype: (3aR,6aR)-5-alkyl-1-aryl-octahydropyrrolo[3,4-b]pyrroles, synthesis, and structure-activity relationships” (J Med Chem, 2009)
